Test results taken from patent US20050226943A1, “Extract of sophora flavescens flavonoids and uses thereof” (priority 2004, published 2005).

How the values were obtained:
IL1-β = test: Inhibition of LPS-induced IL1-β in normal human PBMC (ELISA); assay type: cell-based; conditions: for IL-1β: LPS-stimulated PBMC supernatant; for IL-1βInhibition Ratio (%): LPS-stimulated PBMC
Source text: (§1) Materials: • 1) Cell: PBMC (Peripheral Blood […]) • 2) Drugs: Sophora flavescens flavonoids extract and Kurarinone (Exp. 1) • 3) Positive control: Dexamethason (DEX) • 4) Reagents: Ficoll-Paque Plus (Amersham Bioscience), LPS and dexamethason (CalBiochem.), TNFa ELISA (Enzyme Linked Immunosorbent Assay) Kit and IL1-β ELISA Kit (Jingmei Bioengineer Technology), DMSO (Dimethylsulfoxide) (Sigma)
(§2) a. PBMC cells are isolated from fresh blood by using of Ficoll-Paque Plus reagent according to the protocol that the manufacturer recommends. Cells are suspended in RPMI 1640 media containing 10% FBS. 100 μl of 1×10^5 cells/ml is seeded in each well of 96 well plate, 1×10^4 cells total in each well and three wells for each reaction.
(§3) b. Samples are added into cells (final concentrations are 10, 30, 100 ug/ml, respectively. Sample volume that is added into each well is 10 μl). Final concentration of the positive control, dexamethason is 10 μM. 10 μl of media is added into the cells as a negative control. Then the plate is incubated in 37° C., 5% CO2 incubator for 15 minutes, 10 μl of 100 μg/ml LPS was added to each well except for negative controls. Incubate in 37° C., 5% CO2 incubator overnight.
(§4) c. Spin the plate at 1000 rpm for 15 minutes, transfer supernatant from each well to a new plate, measure the concentrations of TNFα and IL1-β by using assay kits. [formula]

TNFα = test: Inhibition of LPS-induced TNFα in normal human PBMC (ELISA); assay type: cell-based; conditions: for TNFa: LPS-stimulated PBMC supernatant; for TNFa Inhibition Ratio (%): LPS-stimulated PBMC
Source text: as §1, §2, §3, §4

Row | Structure (SMILES) | IL-1β (IL1-β; positive control 10 uM) | IL-1βInhibition Ratio (%) (IL1-β; positive control 10 uM) | TNFa (TNFα; positive control 10 uM) | TNFa Inhibition Ratio (%) (TNFα; positive control 10 uM) | IL-1β (IL1-β; sample 10 μg/ml) | IL-1β (IL1-β; sample 30 μg/ml) | IL-1β (IL1-β; sample 100 μg/ml) | IL-1βInhibition Ratio (%) (IL1-β; sample 10 μg/ml) | IL-1βInhibition Ratio (%) (IL1-β; sample 30 μg/ml) | IL-1βInhibition Ratio (%) (IL1-β; sample 100 μg/ml) | TNFa (TNFα; sample 10 μg/ml) | TNFa (TNFα; sample 30 μg/ml) | TNFa (TNFα; sample 100 μg/ml) | TNFa Inhibition Ratio (%) (TNFα; sample 10 μg/ml) | TNFa Inhibition Ratio (%) (TNFα; sample 30 μg/ml) | TNFa Inhibition Ratio (%) (TNFα; sample 100 μg/ml)
1 | C[C@@H]1C[C@H]2[C@@H]3CCC4=CC(=O)C=C[C@]4(C)[C@@]3(F)[C@@H](O)C[C@]2(C)[C@@]1(O)C(=O)CO [DEX, Dexamethason, reference compound] | 275.6 ± 5.3 pg/mL | 72.9 ± 1.6% | 120.9 ± 3.4 pg/mL | 61.3 ± 1.9% |  |  |  |  |  |  |  |  |  |  |  | 
2 | C=C(C)[C@H](CC=C(C)C)Cc1c(O)cc(OC)c2c1O[C@H](c1ccc(O)cc1O)CC2=O [Kurarinone, 4H-1-Benzopyran-4-one, 2-(2,4-dihydroxyphenyl)-2,3-dihydro-7-hydroxy-5-methoxy-8-[5-methyl-2-(1-methylethenyl)-4-hexenyl]-] |  |  |  |  | 129.8 ± 8.4 pg/mL | 80.5 ± 3.7 pg/mL | 3.1 ± 0.3 pg/mL | 62.4 ± 4.2% | 75.0 ± 4.1% | 99.0 ± 0.5% | 92.2 ± 2.7 pg/mL | 39.5 ± 1.5 pg/mL | 2.1 ± 0.3 pg/mL | 52.5 ± 4.2% | 78.5 ± 4.1% | 98.8 ± 2.1%
